From PubChem BioAssay (NCI)
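Exposure lasted 48 hours, with cells grown in 96-well plates and compounds tested at five concentrations. TGI: concentration producing complete growth inhibition.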 Where a SMILES comes first, the peptide text is derived from it. The star is where a group is joined. X36 = O=C(c1ccc(-c2ccc(Cl)cc2Cl)o1)*

Legend:
Experiment in all cases: DTP human tumour cell line panel, 48 h
MALME-3M melanoma = system: MALME-3M melanoma
OVCAR-5 ovarian = system: OVCAR-5 ovarian
UO-31 renal = system: UO-31 renal
ACHN renal = system: ACHN renal
CAKI-1 renal = system: CAKI-1 renal
786-0 renal = system: 786-0 renal
NCI-H522 lung = system: NCI-H522 lung
OVCAR-4 ovarian = system: OVCAR-4 ovarian
M19-MEL melanoma = system: M19-MEL melanoma
DLD-1 colon = system: DLD-1 colon
KM20L2 colon = system: KM20L2 colon
SK-MEL-5 melanoma = system: SK-MEL-5 melanoma
NCI-H226 lung = system: NCI-H226 lung
SR leukemia = system: SR leukemia
U251 CNS = system: U251 CNS
CCRF-CEM leukemia = system: CCRF-CEM leukemia
MOLT-4 leukemia = system: MOLT-4 leukemia
HOP-92 NSCLC = system: HOP-92 NSCLC
RPMI-8226 leukemia = system: RPMI-8226 leukemia
IGROV1 ovarian = system: IGROV1 ovarian
KM12 colon = system: KM12 colon
SNB-75 CNS = system: SNB-75 CNS
TK-10 renal = system: TK-10 renal
LXFL 529 NSCLC = system: LXFL 529 NSCLC
HL-60(TB) leukemia = system: HL-60(TB) leukemia
SNB-19 CNS = system: SNB-19 CNS
HCC-2998 colon = system: HCC-2998 colon
A549 NSCLC = system: A549 NSCLC
UACC-62 melanoma = system: UACC-62 melanoma
NCI-H23 lung = system: NCI-H23 lung
HOP-62 NSCLC = system: HOP-62 NSCLC
SF-295 CNS = system: SF-295 CNS
SW-620 colon = system: SW-620 colon
OVCAR-8 ovarian = system: OVCAR-8 ovarian
OVCAR-3 ovarian = system: OVCAR-3 ovarian
SK-MEL-28 melanoma = system: SK-MEL-28 melanoma
UACC-257 melanoma = system: UACC-257 melanoma
SK-MEL-2 melanoma = system: SK-MEL-2 melanoma
DMS 114 small cell lung = system: DMS 114 small cell lung
M14 melanoma = system: M14 melanoma
SF-539 CNS = system: SF-539 CNS
DMS 273 small cell lung = system: DMS 273 small cell lung
NCI-H460 lung = system: NCI-H460 lung
SF-268 CNS = system: SF-268 CNS
COLO 205 colon = system: COLO 205 colon
HT29 colon = system: HT29 colon
HCT-116 colon = system: HCT-116 colon
NCI/ADR-RES ovarian = system: NCI/ADR-RES ovarian
LOX IMVI melanoma = system: LOX IMVI melanoma
MCF7 breast = system: MCF7 breast
SN12C renal = system: SN12C renal
HS 578T breast = system: HS 578T breast
DU-145 prostate = system: DU-145 prostate
BT-549 breast = system: BT-549 breast
RXF 393 renal = system: RXF 393 renal
A498 renal = system: A498 renal
SK-OV-3 ovarian = system: SK-OV-3 ovarian
MDA-MB-435 = system: MDA-MB-435
MDA-MB-231 breast = system: MDA-MB-231 breast
PC-3 prostate = system: PC-3 prostate
EKVX NSCLC = system: EKVX NSCLC
HCT-15 colon = system: HCT-15 colon
T-47D breast = system: T-47D breast
K-562 leukemia = system: K-562 leukemia
MDA-N = system: MDA-N

With `Nc1nc(CCl)nc(Nc2ccccc2)n1` as the compound, how does the TGI (MALME-3M melanoma) read?
Its TGI is 33.7 µM.

And the TGI (OVCAR-5 ovarian)?
The TGI was 43.4 µM.

And the TGI (UO-31 renal)?
Its TGI is 67.3 µM.

What about the TGI (ACHN renal) of the same compound?
The TGI was 66.1 µM.

What about the TGI (CAKI-1 renal) of the same compound?
Its TGI is 24.8 µM.

What about the TGI (786-0 renal) of the same compound?
Its TGI is 4.35 µM.

And the TGI (NCI-H522 lung)?
Its TGI is 3.27 µM.

And the TGI (OVCAR-4 ovarian)?
The TGI was 32.1 µM.

What about the TGI (M19-MEL melanoma) of the same compound?
Its TGI is 98.8 µM.

What about the TGI (DLD-1 colon) of the same compound?
The TGI was > 100 µM.

And the TGI (KM20L2 colon)?
The TGI was 35.9 µM.

And the TGI (SK-MEL-5 melanoma)?
Its TGI is 36.5 µM.

What about the TGI (NCI-H226 lung) of the same compound?
Its TGI is 43.3 µM.

And the TGI (SR leukemia)?
The TGI was 33.7 µM.

What about the TGI (U251 CNS) of the same compound?
The TGI was 15.6 µM.

And the TGI (CCRF-CEM leukemia)?
Its TGI is 4.58 µM.

What about the TGI (MOLT-4 leukemia) of the same compound?
The TGI was 37.2 µM.

What about the TGI (HOP-92 NSCLC) of the same compound?
Its TGI is 33.6 µM.

And the TGI (RPMI-8226 leukemia)?
Its TGI is 19.8 µM.

And the TGI (IGROV1 ovarian)?
The TGI was 36.1 µM.

And the TGI (KM12 colon)?
Its TGI is 30.1 µM.

What about the TGI (SNB-75 CNS) of the same compound?
Its TGI is 50.3 µM.

What about the TGI (TK-10 renal) of the same compound?
The TGI was 83.4 µM.

What about the TGI (LXFL 529 NSCLC) of the same compound?
Its TGI is 28.9 µM.

And the TGI (HL-60(TB) leukemia)?
Its TGI is 11.2 µM.

And the TGI (SNB-19 CNS)?
Its TGI is > 100 µM.

What about the TGI (HCC-2998 colon) of the same compound?
Its TGI is 31.7 µM.

And the TGI (A549 NSCLC)?
The TGI was 79.4 µM.

What about the TGI (UACC-62 melanoma) of the same compound?
Its TGI is 34.6 µM.

And the TGI (NCI-H23 lung)?
Its TGI is 38.7 µM.

And the TGI (HOP-62 NSCLC)?
Its TGI is 38.8 µM.

What about the TGI (SF-295 CNS) of the same compound?
Its TGI is 81.7 µM.

And the TGI (SW-620 colon)?
The TGI was 46.3 µM.

And the TGI (OVCAR-8 ovarian)?
Its TGI is > 100 µM.

What about the TGI (OVCAR-3 ovarian) of the same compound?
Its TGI is 32.8 µM.

And the TGI (SK-MEL-28 melanoma)?
The TGI was 33.2 µM.

And the TGI (UACC-257 melanoma)?
Its TGI is 71.9 µM.

What about the TGI (SK-MEL-2 melanoma) of the same compound?
The TGI was 44.1 µM.

And the TGI (DMS 114 small cell lung)?
The TGI was 36.5 µM.

What about the TGI (M14 melanoma) of the same compound?
The TGI was 32.8 µM.

And the TGI (SF-539 CNS)?
The TGI was 70.7 µM.

What about the TGI (DMS 273 small cell lung) of the same compound?
Its TGI is 14 µM.

And the TGI (NCI-H460 lung)?
The TGI was 39.3 µM.

What about the TGI (SF-268 CNS) of the same compound?
Its TGI is 45.2 µM.

What about the TGI (COLO 205 colon) of the same compound?
Its TGI is 43.4 µM.

And the TGI (HT29 colon)?
The TGI was 27.9 µM.

And the TGI (HCT-116 colon)?
The TGI was 43.5 µM.

Which results are given for `CCC(C)C(NC(=O)CNC(=O)C(Cc1ccccc1)NC(=O)C1CCCN1C(=O)c1ccc(-c2ccc(Cl)cc2Cl)o1)C(=O)OC` (stereo unspecified) (X36-PFGI-OMe; configuration not given here)?
TGI (NCI/ADR-RES ovarian): > 100 µM; TGI (MALME-3M melanoma): > 100 µM; TGI (OVCAR-5 ovarian): > 100 µM; TGI (UO-31 renal): > 100 µM; TGI (ACHN renal): > 100 µM; TGI (LOX IMVI melanoma): > 100 µM; TGI (CAKI-1 renal): > 100 µM; TGI (MCF7 breast): > 100 µM; TGI (786-0 renal): > 100 µM; TGI (NCI-H522 lung): > 100 µM; TGI (SN12C renal): 82.6 µM; TGI (OVCAR-4 ovarian): > 100 µM; TGI (HS 578T breast): > 100 µM; TGI (DU-145 prostate): > 100 µM; TGI (SK-MEL-5 melanoma): 45.6 µM; TGI (BT-549 breast): > 100 µM; TGI (RXF 393 renal): > 100 µM; TGI (NCI-H226 lung): > 100 µM; TGI (SR leukemia): 95.6 µM; TGI (A498 renal): 54.4 µM; TGI (U251 CNS): 93.5 µM; TGI (CCRF-CEM leukemia): > 100 µM; TGI (SK-OV-3 ovarian): > 100 µM; TGI (MDA-MB-435): > 100 µM; TGI (MOLT-4 leukemia): > 100 µM; TGI (HOP-92 NSCLC): 41.9 µM; TGI (MDA-MB-231 breast): > 100 µM; TGI (RPMI-8226 leukemia): > 100 µM; TGI (IGROV1 ovarian): > 100 µM; TGI (PC-3 prostate): 49.1 µM; TGI (EKVX NSCLC): 89.9 µM; TGI (KM12 colon): > 100 µM; TGI (SNB-75 CNS): 69.4 µM; TGI (TK-10 renal): > 100 µM; TGI (HL-60(TB) leukemia): > 100 µM; TGI (SNB-19 CNS): > 100 µM; TGI (HCC-2998 colon): 64 µM; TGI (A549 NSCLC): > 100 µM; TGI (HCT-15 colon): > 100 µM; TGI (UACC-62 melanoma): > 100 µM; TGI (NCI-H23 lung): > 100 µM; TGI (HOP-62 NSCLC): > 100 µM; TGI (SF-295 CNS): > 100 µM; TGI (SW-620 colon): > 100 µM; TGI (OVCAR-8 ovarian): > 100 µM; TGI (OVCAR-3 ovarian): > 100 µM; TGI (SK-MEL-28 melanoma): > 100 µM; TGI (UACC-257 melanoma): 67.2 µM; TGI (SK-MEL-2 melanoma): > 100 µM; TGI (M14 melanoma): > 100 µM; TGI (SF-539 CNS): 86.6 µM; TGI (T-47D breast): > 100 µM; TGI (K-562 leukemia): > 100 µM; TGI (MDA-N): > 100 µM; TGI (NCI-H460 lung): > 100 µM; TGI (SF-268 CNS): > 100 µM; TGI (COLO 205 colon): > 100 µM; TGI (HT29 colon): > 100 µM; TGI (HCT-116 colon): > 100 µM
